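Protocol summary: plate cells (96-well), add compound at 5 concentrations, incubate 48 h, interpolate endpoints linearly. At the GI50, growth is halved. TGI marks complete inhibition of growth.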
Columns and labels:
Test in all cases: DTP human tumour cell line panel, 48 h
MALME-3M melanoma = test system: MALME-3M melanoma
OVCAR-8 ovarian = test system: OVCAR-8 ovarian
CCRF-CEM leukemia = test system: CCRF-CEM leukemia
HCC-2998 colon = test system: HCC-2998 colon
A498 renal = test system: A498 renal
NCI-H522 lung = test system: NCI-H522 lung
HT29 colon = test system: HT29 colon
IGROV1 ovarian = test system: IGROV1 ovarian
NCI/ADR-RES ovarian = test system: NCI/ADR-RES ovarian
ACHN renal = test system: ACHN renal
LOX IMVI melanoma = test system: LOX IMVI melanoma

O=C(O)CCCc1ccc2c(c1)CC1(C2)Cc2cc3c(cc2C1)CCCC3
TGI (MALME-3M melanoma): 41.5 µM
TGI (OVCAR-8 ovarian): 31.4 µM
TGI (CCRF-CEM leukemia): 27.9 µM
TGI (HCC-2998 colon): 41.4 µM
TGI (A498 renal): 35.3 µM
TGI (NCI-H522 lung): 47 µM
TGI (HT29 colon): 30.4 µM
TGI (IGROV1 ovarian): 41.4 µM
TGI (NCI/ADR-RES ovarian): 87.4 µM
TGI (ACHN renal): 33.1 µM
TGI (LOX IMVI melanoma): 32.7 µM

C[C@@H]1CC[C@]2(C)C3(C)CC[C@]2(OC3=O)[C@@]12CC(c1ccoc1)OC2=O (stereo partly specified)
TGI (MALME-3M melanoma): 41.2 µM
TGI (CCRF-CEM leukemia): 65.9 µM
TGI (HCC-2998 colon): > 100 µM
TGI (A498 renal): > 100 µM
TGI (NCI-H522 lung): 4.46 µM
TGI (HT29 colon): > 100 µM
TGI (IGROV1 ovarian): 64.7 µM
TGI (NCI/ADR-RES ovarian): > 100 µM
TGI (ACHN renal): 43.6 µM
TGI (LOX IMVI melanoma): 43.6 µM

COC(=O)[C@@]12OC[C@]34C([C@@H](O)C1O)[C@@]1(C)CC(=O)C(OC(=O)CC(C)C(F)(F)F)=C(C)C1C[C@H]3OC(=O)[C@H](O)[C@H]42 (stereo partly specified)
TGI (MALME-3M melanoma): 3.69 µM
TGI (OVCAR-8 ovarian): > 62.5 µM
TGI (CCRF-CEM leukemia): > 62.5 µM
TGI (HCC-2998 colon): 11 µM
TGI (A498 renal): 0.625 µM
TGI (NCI-H522 lung): 24.5 µM
TGI (HT29 colon): > 62.5 µM
TGI (IGROV1 ovarian): 45.5 µM
TGI (ACHN renal): > 62.5 µM

O=C(c1ccccc1)C1(Br)S(=O)(=O)OCCOS1(=O)=O
TGI (MALME-3M melanoma): > 100 µM
TGI (OVCAR-8 ovarian): > 100 µM
TGI (CCRF-CEM leukemia): > 100 µM
TGI (HCC-2998 colon): > 100 µM
TGI (A498 renal): > 100 µM
TGI (NCI-H522 lung): > 100 µM
TGI (HT29 colon): > 100 µM
TGI (IGROV1 ovarian): > 100 µM
TGI (ACHN renal): > 100 µM
TGI (LOX IMVI melanoma): > 100 µM

CCN(CC)CCNc1ccc([N+](=O)[O-])c2nc3ccc(OC)cc3c(NCCN(CC)CC)c12
TGI (MALME-3M melanoma): 5.07 µM
TGI (OVCAR-8 ovarian): > 4.16 µM
TGI (CCRF-CEM leukemia): 1.54 µM
TGI (HCC-2998 colon): 2.01 µM
TGI (A498 renal): 4.05 µM
TGI (NCI-H522 lung): 2.51 µM
TGI (HT29 colon): 2.63 µM
TGI (IGROV1 ovarian): 7.15 µM
TGI (NCI/ADR-RES ovarian): 2.76 µM
TGI (ACHN renal): > 10 µM
TGI (LOX IMVI melanoma): 2.43 µM

Cn1c2ccccc2c(=O)c2c(O)cc3c(c21)C1OCC(C)(O)C1O3 (stereo unspecified)
TGI (OVCAR-8 ovarian): > 100 µM
TGI (CCRF-CEM leukemia): > 100 µM
TGI (HCC-2998 colon): > 100 µM
TGI (HT29 colon): > 100 µM
TGI (IGROV1 ovarian): 79.7 µM
TGI (NCI/ADR-RES ovarian): > 100 µM
TGI (ACHN renal): > 100 µM

CN(NC1=NCCO1)c1ccc2ccccc2c1
TGI (MALME-3M melanoma): > 100 µM
TGI (OVCAR-8 ovarian): > 100 µM
TGI (CCRF-CEM leukemia): 49.5 µM
TGI (HCC-2998 colon): 99.4 µM
TGI (A498 renal): > 100 µM
TGI (NCI-H522 lung): > 100 µM
TGI (HT29 colon): > 100 µM
TGI (IGROV1 ovarian): > 100 µM
TGI (NCI/ADR-RES ovarian): > 100 µM
TGI (ACHN renal): > 100 µM
TGI (LOX IMVI melanoma): > 100 µM

Cc1nc2c(sc3nc4c(cc32)CCC4)c(=O)o1
TGI (OVCAR-8 ovarian): > 93.7 µM
TGI (CCRF-CEM leukemia): > 88.9 µM
TGI (HCC-2998 colon): > 100 µM
TGI (A498 renal): > 100 µM
TGI (NCI-H522 lung): 77.9 µM
TGI (HT29 colon): > 100 µM
TGI (IGROV1 ovarian): 59.1 µM
TGI (NCI/ADR-RES ovarian): > 100 µM
TGI (ACHN renal): > 100 µM
TGI (LOX IMVI melanoma): > 100 µM

Cc1cc(C)c(-c2no/c(=N\S(=O)(=O)c3ccc(Cl)cc3)o2)c(C)c1
TGI (MALME-3M melanoma): > 100 µM
TGI (OVCAR-8 ovarian): > 100 µM
TGI (CCRF-CEM leukemia): > 100 µM
TGI (HCC-2998 colon): > 100 µM
TGI (A498 renal): > 100 µM
TGI (NCI-H522 lung): 71.2 µM
TGI (HT29 colon): > 100 µM
TGI (IGROV1 ovarian): > 100 µM
TGI (NCI/ADR-RES ovarian): > 100 µM
TGI (ACHN renal): > 100 µM

O=C1CC(c2cccc(Cl)c2)Nc2ccc(N3CCCC3)cc21 (stereo unspecified)
TGI (OVCAR-8 ovarian): 3.85 µM
GI50 (HCC-2998 colon): 0.0148 µM
TGI (HCC-2998 colon): 0.0611 µM
TGI (A498 renal): > 100 µM
TGI (NCI-H522 lung): 0.0677 µM
TGI (HT29 colon): 0.331 µM
TGI (ACHN renal): > 100 µM
TGI (LOX IMVI melanoma): > 100 µM

Cc1ccc(S(=O)(=O)N(CC(O)COc2ccccc2)c2c(F)cccc2F)cc1 (stereo unspecified)
TGI (MALME-3M melanoma): 52.4 µM
TGI (OVCAR-8 ovarian): 35.5 µM
TGI (CCRF-CEM leukemia): 95.8 µM
TGI (HCC-2998 colon): 47.6 µM
TGI (A498 renal): 38.8 µM
TGI (HT29 colon): 36.3 µM
TGI (NCI/ADR-RES ovarian): 43.1 µM
TGI (ACHN renal): 40.1 µM
TGI (LOX IMVI melanoma): 28.5 µM

COc1ccc2nc3cc(Cl)ccc3c(NC(C)CCCN(CCCl)CCCl)c2c1 (stereo unspecified)
TGI (MALME-3M melanoma): 9.63 µM
TGI (OVCAR-8 ovarian): 4.32 µM
TGI (CCRF-CEM leukemia): 1.12 µM
TGI (HCC-2998 colon): 9.61 µM
TGI (A498 renal): 18.7 µM
TGI (NCI-H522 lung): 2.24 µM
TGI (HT29 colon): 2.81 µM
TGI (IGROV1 ovarian): 7.11 µM
TGI (ACHN renal): 3.17 µM
TGI (LOX IMVI melanoma): 1.17 µM

CC(C)(CN1CCCCC1)C(=O)/C=C/c1ccc(Br)cc1
TGI (MALME-3M melanoma): 17.4 µM
TGI (OVCAR-8 ovarian): 6.98 µM
TGI (CCRF-CEM leukemia): 9.34 µM
TGI (HCC-2998 colon): 31.7 µM
TGI (A498 renal): 5.8 µM
TGI (NCI-H522 lung): 3.98 µM
TGI (HT29 colon): 12.6 µM
TGI (IGROV1 ovarian): 6.48 µM
TGI (ACHN renal): 14.5 µM
TGI (LOX IMVI melanoma): 4.63 µM

c1cc(-c2ccc(-c3ccsc3)s2)cs1
TGI (OVCAR-8 ovarian): > 100 µM
TGI (CCRF-CEM leukemia): 44.4 µM
TGI (HCC-2998 colon): > 100 µM
TGI (A498 renal): > 100 µM
TGI (NCI-H522 lung): > 100 µM
TGI (HT29 colon): > 100 µM
TGI (IGROV1 ovarian): > 100 µM
TGI (NCI/ADR-RES ovarian): 87.5 µM
TGI (ACHN renal): > 100 µM
TGI (LOX IMVI melanoma): > 100 µM

O=C1c2ccccc2C(=O)c2[nH]cnc21
TGI (MALME-3M melanoma): 57.3 µM
TGI (OVCAR-8 ovarian): > 100 µM
TGI (CCRF-CEM leukemia): > 100 µM
TGI (HCC-2998 colon): > 100 µM
TGI (A498 renal): > 100 µM
TGI (NCI-H522 lung): > 100 µM
TGI (HT29 colon): > 100 µM
TGI (ACHN renal): > 100 µM

CCOC(=O)c1c(NC(=O)c2ccccc2)c(C#N)c2n1CCCCC2
TGI (MALME-3M melanoma): > 100 µM
TGI (OVCAR-8 ovarian): > 100 µM
TGI (CCRF-CEM leukemia): > 100 µM
TGI (HCC-2998 colon): > 100 µM
TGI (NCI-H522 lung): > 100 µM
TGI (HT29 colon): > 100 µM
TGI (IGROV1 ovarian): > 100 µM
TGI (NCI/ADR-RES ovarian): > 100 µM
TGI (ACHN renal): > 100 µM
TGI (LOX IMVI melanoma): > 100 µM

CC1(C)O[C@@H]2[C@@H](COC(C)(C)O[C@H]2C2SCCCS2)O1
TGI (MALME-3M melanoma): > 100 µM
TGI (OVCAR-8 ovarian): > 100 µM
TGI (HCC-2998 colon): > 100 µM
TGI (A498 renal): > 100 µM
TGI (NCI-H522 lung): > 100 µM
TGI (HT29 colon): > 100 µM
TGI (NCI/ADR-RES ovarian): > 100 µM
TGI (ACHN renal): > 100 µM

O=C(CSCC(=O)N/N=C/c1cccc(O)c1)N/N=C/c1cccc(O)c1
TGI (MALME-3M melanoma): > 100 µM
TGI (OVCAR-8 ovarian): > 100 µM
TGI (HCC-2998 colon): > 100 µM
TGI (A498 renal): > 100 µM
TGI (NCI-H522 lung): > 100 µM
TGI (HT29 colon): > 100 µM
TGI (IGROV1 ovarian): > 100 µM
TGI (NCI/ADR-RES ovarian): > 100 µM
TGI (ACHN renal): > 100 µM
